We go through 16 molecules from PubChem BioAssay (NCI).

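Five concentrations, 48 hours, 96-well plates. At the TGI there is no net growth.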

Some test systems named below: COLO 205 colon; HOP-92 NSCLC; HT29 colon; IGROV1 ovarian; MDA-MB-231 breast; OVCAR-8 ovarian; RPMI-8226 leukemia; SK-MEL-5 melanoma.
What all share (experiment): NCI-60 cell line screen, 48 h

Regarding `C=C1C(=O)OC2CC(=C)C3CC=C(C)C3CC12` (stereo not drawn), the TGI is 41.7 µM with COLO 205 colon; 28.7 µM in the test with HOP-92 NSCLC; 28.5 µM in the test with HT29 colon; 55.5 µM with IGROV1 ovarian; 63.7 µM with MDA-MB-231 breast; greater than 100 µM in the test with OVCAR-8 ovarian. Moreover, the TGI in the test with RPMI-8226 leukemia and with SK-MEL-5 melanoma was greater than 100 µM each time.

Regarding `CC(C)(C)OC(=O)c1ccc(NCC2=CC(=O)C=CC2=O)cc1`, the TGI in the test with COLO 205 colon was 7.21 µM; in the test on HOP-92 NSCLC, 4.4 µM; in the test on HT29 colon it was 35 µM; in the test with IGROV1 ovarian it was 23.9 µM; with MDA-MB-231 breast, 21.6 µM; with OVCAR-8 ovarian, 26.9 µM. Also, the figures for the TGI in the test with RPMI-8226 leukemia and with SK-MEL-5 melanoma were greater than 27.1 µM and 29 µM, respectively.

On to `CC(C)(C)c1cc(OCc2nnc3sc(=S)[nH]n23)c(Cl)cc1OCc1nnc2sc(=S)[nH]n12`, for which the TGI with COLO 205 colon is greater than 100 µM; with HOP-92 NSCLC, 53.3 µM; in the test with HT29 colon it was greater than 100 µM; with IGROV1 ovarian it was 66.4 µM; in the test with MDA-MB-231 breast it was greater than 100 µM; in the test with OVCAR-8 ovarian it was greater than 100 µM. Besides, the TGI was greater than 100 µM in the test on RPMI-8226 leukemia and 29.5 µM with SK-MEL-5 melanoma.

Turning to `O=C1NC(=O)/C(=C/c2ccc(S(=O)(=O)N/N=C\C(O)C(O)C(O)C(O)CO)cc2)N1` (stereo not drawn), the TGI in the test on COLO 205 colon, in the test with HOP-92 NSCLC, in the test with HT29 colon, in the test on IGROV1 ovarian, in the test on MDA-MB-231 breast and in the test with OVCAR-8 ovarian was greater than 100 µM throughout. Moreover, the TGI with RPMI-8226 leukemia and with SK-MEL-5 melanoma was greater than 100 µM in each case.

Turning to `COc1cc(Nc2nnc3n2S(=O)(=O)c2cc(C)c(Cl)cc2S3)cc(OC)c1`, the TGI with COLO 205 colon is greater than 100 µM; in the test with HOP-92 NSCLC, 27 µM; in the test on HT29 colon, greater than 100 µM; with IGROV1 ovarian, 6.26 µM; with MDA-MB-231 breast, 74.5 µM; in the test with OVCAR-8 ovarian, 81.1 µM. In addition, the TGI was 95.7 µM with RPMI-8226 leukemia and 68.7 µM in the test on SK-MEL-5 melanoma.

In the case of `O=C(O)C1(Cc2ccc3c(c2)CCC3)Cc2ccccc2C1`, the TGI in the test on COLO 205 colon, in the test on HOP-92 NSCLC, with HT29 colon, in the test on IGROV1 ovarian, with MDA-MB-231 breast and in the test with OVCAR-8 ovarian was greater than 100 µM in each case. Moreover, the TGI in the test with RPMI-8226 leukemia and in the test with SK-MEL-5 melanoma was greater than 100 µM throughout.

Take `CCN(CC)/[N+]([O-])=N/OCOC(C)=O`: the TGI with COLO 205 colon, in the test on HOP-92 NSCLC, in the test with HT29 colon, in the test on IGROV1 ovarian, with MDA-MB-231 breast and in the test with OVCAR-8 ovarian was greater than 100 µM throughout. For the same molecule, the TGI with RPMI-8226 leukemia and in the test on SK-MEL-5 melanoma was greater than 100 µM each time.

Regarding `O/N=C(\CC(O)(C(F)(F)F)C(F)(F)F)c1cccc(Cl)c1`, the TGI in the test on COLO 205 colon is greater than 100 µM; in the test on HOP-92 NSCLC, 56.6 µM; in the test with HT29 colon, greater than 100 µM; in the test with IGROV1 ovarian, 84.4 µM; with MDA-MB-231 breast it was 56.9 µM; in the test on OVCAR-8 ovarian, greater than 100 µM. The figures for the TGI with RPMI-8226 leukemia and in the test with SK-MEL-5 melanoma were greater than 100 µM and 31.6 µM, respectively.

For the molecule `N#Cc1c(O)cc(=O)n2c1[nH]c1ccccc12`, the TGI in the test with COLO 205 colon, with HOP-92 NSCLC, with HT29 colon, with IGROV1 ovarian, with MDA-MB-231 breast and in the test on OVCAR-8 ovarian was greater than 100 µM in each case. Further, the TGI in the test on RPMI-8226 leukemia and in the test on SK-MEL-5 melanoma was greater than 100 µM throughout.

For the molecule `CCOC(=O)/C=C/[C@H](O)[C@@H](O)/C=C/C(=O)OCC`, the TGI was greater than 100 µM with COLO 205 colon; 33.5 µM in the test on HOP-92 NSCLC; 36.9 µM with HT29 colon; greater than 100 µM with IGROV1 ovarian; greater than 100 µM with MDA-MB-231 breast; 44.8 µM with OVCAR-8 ovarian. In addition, the TGI in the test on RPMI-8226 leukemia is 44.6 µM; in the test with SK-MEL-5 melanoma, greater than 100 µM.

With `CC(C)(C)OC/C=C1\C(=O)O[C@H]2C[C@@H](O[Si](C)(C)C(C)(C)C)C[C@@H]12`, the TGI in the test with COLO 205 colon, in the test with HOP-92 NSCLC, in the test on HT29 colon, with IGROV1 ovarian, with MDA-MB-231 breast and in the test on OVCAR-8 ovarian was greater than 100 µM in each case. For the same molecule, the TGI in the test on RPMI-8226 leukemia and in the test on SK-MEL-5 melanoma was greater than 100 µM each time.

With `CCCCCCOc1ccc(C(=O)N(C)O)cc1`, the TGI with COLO 205 colon is 56 µM; in the test with HOP-92 NSCLC, greater than 100 µM; in the test with HT29 colon, 27.5 µM; in the test on IGROV1 ovarian, greater than 100 µM; with MDA-MB-231 breast, greater than 100 µM; in the test with OVCAR-8 ovarian it was 61 µM. The figures for the TGI with RPMI-8226 leukemia and in the test with SK-MEL-5 melanoma were 46.6 µM and 62.5 µM, respectively.

With `[O-][N+]1=NC(c2ccccc2)=C1c1ccccc1`, the TGI in the test with COLO 205 colon, in the test on HOP-92 NSCLC, in the test with HT29 colon, in the test on IGROV1 ovarian, in the test with MDA-MB-231 breast and in the test on OVCAR-8 ovarian was greater than 50 µM each time. Also, the TGI in the test on RPMI-8226 leukemia and with SK-MEL-5 melanoma was greater than 50 µM throughout.

In the case of `CN(C)C=NCCN1CCOCC1`, the TGI in the test on COLO 205 colon, in the test on HOP-92 NSCLC, in the test with HT29 colon, with IGROV1 ovarian, in the test on MDA-MB-231 breast and with OVCAR-8 ovarian was greater than 100 µM in each case. Further, the TGI with RPMI-8226 leukemia and in the test on SK-MEL-5 melanoma was greater than 100 µM each time.

For the molecule `C=CC(Br)(CBr)CCC(Br)C(C)(C)Cl` (stereo not drawn), the TGI with COLO 205 colon was found to be 4.36 µM; in the test on HOP-92 NSCLC, 4.32 µM; with HT29 colon it was 2.9 µM; in the test on IGROV1 ovarian, 12.8 µM; in the test on MDA-MB-231 breast, 6.95 µM; in the test with OVCAR-8 ovarian, 10.2 µM. Moreover, the results for the TGI in the test on RPMI-8226 leukemia and in the test on SK-MEL-5 melanoma were 2.31 µM and 23.4 µM, respectively.

As for `NC(=O)C(=O)C(c1ccccc1)S(=O)(=O)Cc1ccccc1` (stereo not drawn), the TGI in the test with COLO 205 colon, in the test with HOP-92 NSCLC, with HT29 colon, in the test with IGROV1 ovarian, in the test with MDA-MB-231 breast and in the test on OVCAR-8 ovarian was greater than 100 µM throughout. In addition, the TGI in the test on RPMI-8226 leukemia and with SK-MEL-5 melanoma was greater than 100 µM in each case.
